Data taken from patent US7569229B2, “Monocyte locomotion inhibitory factor” (Center for Blood Research, Inc., priority 1998, dated 2009).

Tests used:
[1] = test system: polymorphonuclear eosinophils; experiment: Effect on eosinophils (locomotion or metabolism); format: cell-based; conditions: locomotion or metabolism of polymorphonuclear eosinophils
[2] = test system: human mononuclear phagocytes; experiment: Cytoplasmic cyclic AMP in human mononuclear phagocytes; format: cell-based; conditions: interaction through a receptor on human mononuclear phagocytes
[3] = test system: human peripheral blood MP; experiment: Inhibition of Luminol enhanced chemiluminescence (respiratory burst) in opsonized zymosan activated MP; format: cell-based; conditions: measured as mV/10^6 cells over a 29-30 minute period; six experiments; comparing experimental conditions, except 1 vs 10 μg of construct; FIG. 3A
Description: (§1) (b) Preparation of cells. MP (95±2%) and neutrophils (95±2%) were obtained from the peripheral blood of fasting, non-smoking individual donors, using Ficoll-Paque centrifugation and further enrichment of MP by nylon wool adherence. Cell viability was established (≧94%) before and after the experiments by trypan blue dye exclusion.
(§2) (c) MLIF activity. In vitro MLIF activity was assessed either by the inhibition of MP chemotaxis towards zymosan (Sigma) activated serum in double-filter (upper filter 5.0 μm pore size (Nuclepore), lower cell-impermeable filter 8.0 μm pore size (Sartorius)) Boyden chambers, or by the inhibition of MP or neutrophil, Luminol™ (Eastman Kodak) enhanced chemiluminescence after opsonized zymosan particle ingestion, measured in Biorbit 1250 chemiluminometer (LKB) (n>6). In vivo MLIF activity was measured by its capacity to inhibit DNCB (1-chloro-2-4 dinitrobenzene) contact hypersensitivity reactions in individually-caged Harley short hair adult guinea pigs previously (14 days) sensitized with a vesicant DNCB dose (10 mg/ml acetone olive oil (4:1) soaked 5 mm diameter Whatman #2 filter paper disks). […] Disks were removed after 24 h, and redness-induration measured blindly a day later. […]
(§3) In vitro activity of native MLIF and its synthetic custom construct is measured. […]

[4] = test system: human peripheral blood neutrophils; experiment: Inhibition of Luminol enhanced chemiluminescence (respiratory burst) in opsonized zymosan activated neutrophils; format: cell-based; conditions: measured as mV/10^6 cells over a 29-30 minute period; six experiments; comparing experimental conditions; FIG. 3B
Description: as §1, §2, §3

[5] = test system: human peripheral blood MP; experiment: Inhibition of MP chemotaxis towards zymosan activated serum in double-filter Boyden chambers; format: cell-based; conditions: Boyden chamber; native MLIF and construct in similar concentrations, comparable to each other; n=8 for each group; FIG. 3C
Description: as §1, §2, §3

[6] = test system: DNCB contact hypersensitivity reactions in guinea pigs; experiment: Inhibition of DNCB contact hypersensitivity skin reaction; format: in vivo, guinea pig; conditions: for Histology of inhibited DNCB reactions: biopsies, compared to normal, non-interfered DNCB reactions; for DNCB skin reaction (mm diameter, or positive/negative with cut-off 5 mm) compared to PBS or virgin axenic medium control: intradermal injection 0.05 ml, native MLIF 8 μg/ml, custom construct 1, 10 or 100 μg/ml, comparable among them, FIG. 4
Description: (c) MLIF activity. In vitro MLIF activity was assessed either by the inhibition of MP chemotaxis towards zymosan (Sigma) activated serum in double-filter (upper filter 5.0 μm pore size (Nuclepore), lower cell-impermeable filter 8.0 μm pore size (Sartorius)) Boyden chambers, or by the inhibition of MP or neutrophil, Luminol™ (Eastman Kodak) enhanced chemiluminescence after opsonized zymosan particle ingestion, measured in Biorbit 1250 chemiluminometer (LKB) (n>6). In vivo MLIF activity was measured by its capacity to inhibit DNCB (1-chloro-2-4 dinitrobenzene) contact hypersensitivity reactions in individually-caged Harley short hair adult guinea pigs previously (14 days) sensitized with a vesicant DNCB dose (10 mg/ml acetone olive oil (4:1) soaked 5 mm diameter Whatman #2 filter paper disks). Intradermal injections of 0.05 ml of either native MLIF (8 μg/ml), MLIF custom construct (0.001-100 μg/ml), or pyrogen free phosphate buffered saline pH 7.4, were applied just beneath and simultaneous to the application of the eliciting dose of DNCB (0.05 mg/ml soaked paper disks). Disks were removed after 24 h, and redness-induration measured blindly a day later. Biopsies were obtained for histological evaluation in selected samples. The animals were not sacrificed.
(f) Statistical analysis. Results of in vitro MLIF activity were analyzed by non-parametric Mann-Whitney or Kruskall-Wallis analysis of variance test, and in vivo activity results by Student's t and Fisher's exact tests.
The reaction is measured in mm diameter against the eliciting dose, or as positive or negative reactions of the same with a cut-off criterium of 5 mm in diameter.

Substance | Effect on other cells, such as eosinophils [1] | Storage stability (at −70° C.) | Heat stability (incubation at 56° C.) | Cytoplasmic mediator cyclic AMP [2] | Areas under the curve of chemiluminescence, MP [3] | Areas under the curve of chemiluminescence, neutrophils [4] | Human peripheral blood MP chemotaxis compared to the normal chemotactic runs (i.e., 100%) [5] | Histology of inhibited DNCB reactions [6] | DNCB skin reaction (mm diameter, or positive/negative with cut-off 5 mm) compared to PBS or virgin axenic medium control [6]
M - Q - C - N - S (MQCNS; listed as Entamoeba histolytica) [native MLIF, oligopeptide isolated from the supernatant fluid of axenically grown E. histolytica, about 583 Daltons] | does not affect | storable | heat stable | increase | significantly (p<0.01) different | significantly (p<0.01) different | significantly lower (p<0.01) | scarce mononuclear perivascular infiltrate | significantly different (p<0.001)
MQCNS [custom construct] |  |  |  |  | significantly (p<0.01) different | significantly (p<0.01) different | significantly lower (p<0.01) | scarce mononuclear perivascular infiltrate | significantly different (p<0.001)
